# Assay results: US8349883B2, “Hydroxamate-based inhibitors of deacetylases B” (Novartis AG, priority 2008, dated 2013)
# How the values were obtained:
# HDAC-1 = target: T1, HDAC-1 (Homo sapiens, UniProt Q13547); assay: HDAC inhibition assay (purified GST-HDAC protein); assay type: biochemical
# T1 construct: made in house; host or cells: Sf9 or Sf21 insect cells (baculovirus, donor vector pFB-GSTX3)
# Description: The baculovirus donor vector pFB-GSTX3 was used to generate a recombinant baculovirus that can express the HDAC polypeptide. Transfer vectors containing the HDAC coding region were transfected into the DH10Bac cell line (GIBCO) and plated on selective agar plates. Colonies without insertion of the fusion sequence into the viral genome (carried by the bacteria) were blue. Single, white colonies were picked and viral DNAs (bacmid) were isolated from the bacteria by standard plasmid purification procedures. Sf9 cells or Sf21 (American Type Culture Collection) cells were then transfected in […] flasks with the viral DNA using Cellfectin reagent.
# Virus-containing media was collected from the transfected cell culture and used for infection to increase its titer. Virus-containing media obtained after two rounds of infection was used for large-scale protein expression. For large-scale protein expression 100 cm^2 round tissue culture plates were seeded with 5×10^7 cells/plate and infected with 1 mL of virus-containing media (at an approximately MOI of 5). After 3 days, the cells were scraped off the plate and centrifuged at 500 rpm for 5 minutes. Cell pellets from 10-20, 100 cm^2 plates, were re-suspended in 50 mL of ice-cold lysis buffer (25 mM tris-HCl, pH 7.5, 2 mM EDTA, 1% NP-40, 1 mM DTT, 1 mM P MSF). The cells were stirred on ice for 15 minutes and then centrifuged at 5,000 rpms for 20 minutes.
# The centrifuged cell lysate was loaded onto a 2 mL glutathione-sepharose column (Pharmacia) and was washed thrice with 10 mL of 25 mM tris-HCl, pH 7.5, 2 mM EDTA, 1 mM DTT, 200 mM NaCl. The GST-tagged proteins were then eluted by 10 applications (1 mL each) of 25 mM tris-HCl, pH 7.5, 10 mM reduced-glutathione, 100 mM NaCl, 1 mM DTT, 10% glycerol and stored at −70° C.
# HDAC assays with purified GST-HDAC protein were carried out in a final volume of 30 μL containing 15 ng of GST-HDAC protein, 20 mM tris-HCl, pH 7.5, 1 mM MnCl2, 10 mM MgCl2, 1 mM DTT, 3 μg/mL poly(Glu,Tyr) 4:1, 1% DMSO, 2.0 μM ATP (γ-[^33P]-ATP 0.1 μCi). The activity was assayed in the presence or absence of inhibitors. The assay was carried out in 96-well plates at ambient temperature for 15 minutes under conditions described below and terminated by the addition of 20 μL of 125 mM EDTA. Subsequently, 40 μL of the reaction mixture were transferred onto EMMOBILON-PVDF membrane (Millipore) previously soaked for 5 minutes with methanol, rinsed with water, then soaked for 5 minutes with 0.5% H3PO4 and mounted on vacuum manifold with disconnected vacuum source. After spotting all samples, a vacuum was connected and each well rinsed with 200 μL 0.5% H3PO4. Membranes were removed and washed four times on a shaker with 1.0% H3PO4, once with ethanol. Membranes were counted after drying at ambient temperature, mounting in Packard TopCount 96-well frame, and addition of 10 μL/well of MICROSCINT™ (Packard). IC50 values were calculated by linear regression analysis of the percentage inhibition of each compound in duplicate, at 4 concentrations (usually 0.01, 0.1, 1 and 10 μM).
# • Input: 3×4 μL stopped assay on IMMOBILON membrane, not washed • Background (3 wells): assay with H2O instead of enzyme • Positive control (4 wells): 3% DMSO instead of compound • Bath control (1 well): no reaction mix
# IC50 values were calculated by logarithmic regression analysis of the percentage inhibition of each compound at 4 concentrations (usually 3- or 10-fold dilution series starting at 10 μM). In each experiment, the actual inhibition by reference compound was used for normalization of IC50 values to the basis of an average value of the reference inhibitor: Normalized IC50=measured IC50 average ref IC50/measured ref IC50
# Example: Reference inhibitor in experiment 0.4 μM, average 0.3 μM, Test compound in experiment 1.0 μM, normalization: 0.3/0.4=0.75 μM
# For example, known HDAC inhibitors or a synthetic derivative thereof may be used as reference compounds.
# HCT116 = HCT116 IC50; assay type: cell-based; conditions: Homo sapiens, HCT-116
# T1 sequence (Q13547 whole entry, species assumed): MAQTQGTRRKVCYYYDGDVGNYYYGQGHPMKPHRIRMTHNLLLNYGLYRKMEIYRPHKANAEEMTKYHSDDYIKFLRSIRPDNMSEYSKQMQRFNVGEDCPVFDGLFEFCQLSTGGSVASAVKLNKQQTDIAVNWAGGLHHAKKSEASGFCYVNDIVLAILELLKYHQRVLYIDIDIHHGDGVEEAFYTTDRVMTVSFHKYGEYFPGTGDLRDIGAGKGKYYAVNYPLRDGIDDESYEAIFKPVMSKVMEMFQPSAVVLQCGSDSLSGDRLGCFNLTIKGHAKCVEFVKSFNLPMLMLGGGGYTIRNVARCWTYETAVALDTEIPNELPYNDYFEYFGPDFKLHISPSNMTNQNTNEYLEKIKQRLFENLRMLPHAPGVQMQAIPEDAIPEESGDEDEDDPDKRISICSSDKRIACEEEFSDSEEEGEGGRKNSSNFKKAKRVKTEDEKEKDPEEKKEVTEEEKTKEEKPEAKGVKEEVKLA
SMILES,IC50 (HDAC-1) [nM],IC50 (HCT116) [nM]
"CC(C)CCN1CCCC1c1ccc(/C=C/C(=O)NO)cc1 (centres unmarked) [Compound 36, (E)-N-Hydroxy-3-{4-[1-(3-methyl-butyl)-pyrrolidin-2-yl]-phenyl}-acrylamide]",10,40
"O=C(/C=C/c1ccc([C@@H]2CCCN2CCc2c[nH]c3ncccc23)cc1)NO [Compound 51, (E)-N-Hydroxy-3-(4-{(S)-1-[2-(1H-pyrrolo[2,3-b]pyridin-3-yl)-ethyl]-pyrrolidin-2-yl}-phenyl)-acrylamide]",1.2,4
"Cc1n[nH]c(C)c1CCN1CCC[C@H]1c1ccc(/C=C/C(=O)NO)cc1 [Compound 95, (E)-3-(4-{(S)-1-[2-(3,5-Dimethyl-1H-pyrazol-4-yl)-ethyl]-pyrrolidin-2-yl}-phenyl)-N-hydroxy-acrylamide]",1.6,3
"O=C(/C=C/c1ccc([C@@H]2CCCN2CCn2cccn2)cc1)NO [Compound 63, (E)-N-Hydroxy-3-{4-[(S)-1-(2-pyrazol-1-yl-ethyl)-pyrrolidin-2-yl]-phenyl}-acrylamide]",42,180
"CC(C)(C)c1[nH]c2cc([N+](=O)[O-])ccc2c1CCN1CCCC1c1ccc(/C=C/C(=O)NO)cc1 (centres unmarked) [Compound 9, (E)-3-(4-{1-[2-(2-tert-Butyl-6-nitro-1H-indol-3-yl)-ethyl]-pyrrolidin-2-yl}-phenyl)-N-hydroxy-acrylamide]",7,0.5
"Cc1nn(C)c(C)c1CCN1CCC[C@H]1c1ccc(CCC(=O)NO)cc1 [Compound 112, N-Hydroxy-3-(4-{(S)-1-[2-(1,3,5-trimethyl-1H-pyrazol-4-yl)-ethyl]-pyrrolidin-2-yl}-phenyl)-propionamide]",10,30
"O=C(/C=C/c1ccc([C@@H]2CCCN2CCc2nnn(C3CCC3)n2)cc1)NO [Compound 105, (E)-3-(4-{(S)-1-[2-(2-Cyclobutyl-2H-tetrazol-5-yl)-ethyl]-pyrrolidin-2-yl}-phenyl)-N-hydroxy-acrylamide]",120,160

# The next lines start with the values.
IC50 (HDAC-1) [nM],IC50 (HCT116) [nM],SMILES
2,3,"CC(C)(O)c1nn2ccccc2c1CCN1CCC[C@H]1c1ccc(/C=C/C(=O)NO)cc1 [Compound 48, (E)-N-Hydroxy-3-[4-((S)-1-{2-[2-(1-hydroxy-1-methyl-ethyl)-pyrazolo[1,5-a]pyridin-3-yl]-ethyl}-pyrrolidin-2-yl)-phenyl]-acrylamide]"
20,49,"Cc1c(CCN2CCC[C@H]2c2ccc(/C=C/C(=O)NO)cc2)c(=O)n(-c2ccccc2)n1C [Compound 116, (E)-3-(4-{(S)-1-[2-(1,5-Dimethyl-3-oxo-2-phenyl-2,3-dihydro-1H-pyrazol-4-yl)-ethyl]-pyrrolidin-2-yl}-phenyl)-N-hydroxy-acrylamide]"
6,11,"O=C(/C=C/c1ccc(C2CCCN2CCc2ccccc2F)cc1)NO (centres unmarked) [Compound 27, (E)-3-(4-{1-[2-(2-Fluoro-phenyl)-ethyl]-pyrrolidin-2-yl}-phenyl)-N-hydroxy-acrylamide]"
7,8,"Cc1nn(C(C)(C)C)c(C)c1CCN1CCC[C@H]1c1ccc(/C=C/C(=O)NO)cc1 [Compound 61, (E)-3-(4-{(S)-1-[2-(1-tert-Butyl-3,5-dimethyl-1H-pyrazol-4-yl)-ethyl]-pyrrolidin-2-yl}-phenyl)-N-hydroxy-acrylamide]"
0.6,0.38,"Cc1nn2ccccc2c1CCN1CCC[C@H]1c1ccc(/C=C/C(=O)NO)cc1 [Compound 44, (E)-N-Hydroxy-3-(4-{(S)-1-[2-(2-methyl-pyrazolo[1,5-a]pyridin-3-yl)-ethyl]-pyrrolidin-2-yl}-phenyl)-acrylamide]"
1,0.5,"Cc1[nH]nc(C(C)(C)C)c1CCN1CCC[C@H]1c1ccc(/C=C/C(=O)NO)cc1 [Compound 100, (E)-3-(4-{(S)-1-[2-(3-tert-Butyl-5-methyl-1H-pyrazol-4-yl)-ethyl]-pyrrolidin-2-yl}-phenyl)-N-hydroxy-acrylamide]"
